Source: publication PMC6891286, “Towards the Development of an In vivo Chemical Probe for Cyclin G Associated Kinase (GAK)” (Molecules, 2019)

Key:
Experiment in all cases: KINOMEscan
Assay type in all cases: binding
Details in all cases: 35 at 1 µM; read-out: % inhibition
[1] = target: T1, ABL1(E255K)-phosphorylated (Homo sapiens, UniProt P00519, E255K)
T1 construct: purchased Eurofins DiscoverX (KINOMEscan)
Protocol: (§1) KinomeScan Assay on 35 was performed as previously described at EuroFins DiscoverX (Fremont, CA, USA).

[2] = target: T2, ABL1(T315I)-phosphorylated (Homo sapiens, UniProt P00519, T315I)
T2 construct: purchased Eurofins DiscoverX (KINOMEscan)
Protocol: as §1

AURKB = target: T3, AURKB (Homo sapiens, UniProt Q96GD4)
T3 construct: purchased Eurofins DiscoverX (KINOMEscan)
T3 sequence (Q96GD4 whole entry): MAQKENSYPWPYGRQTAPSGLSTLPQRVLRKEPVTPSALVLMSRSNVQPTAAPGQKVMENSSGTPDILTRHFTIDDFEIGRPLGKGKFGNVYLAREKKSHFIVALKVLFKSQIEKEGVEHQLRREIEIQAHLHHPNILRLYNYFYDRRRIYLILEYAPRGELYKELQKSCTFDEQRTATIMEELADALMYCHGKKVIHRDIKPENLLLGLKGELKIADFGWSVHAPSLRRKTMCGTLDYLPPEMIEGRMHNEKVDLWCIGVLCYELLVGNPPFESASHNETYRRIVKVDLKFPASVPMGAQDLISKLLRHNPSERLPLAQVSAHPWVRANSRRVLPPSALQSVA
Protocol: as §1

AXL = target: T4, AXL (Homo sapiens, UniProt P30530)
T4 construct: purchased Eurofins DiscoverX (KINOMEscan)
Protocol: as §1

BMX = target: T5, BMX (Homo sapiens, UniProt P51813)
T5 construct: purchased Eurofins DiscoverX (KINOMEscan)
T5 sequence (P51813 whole entry): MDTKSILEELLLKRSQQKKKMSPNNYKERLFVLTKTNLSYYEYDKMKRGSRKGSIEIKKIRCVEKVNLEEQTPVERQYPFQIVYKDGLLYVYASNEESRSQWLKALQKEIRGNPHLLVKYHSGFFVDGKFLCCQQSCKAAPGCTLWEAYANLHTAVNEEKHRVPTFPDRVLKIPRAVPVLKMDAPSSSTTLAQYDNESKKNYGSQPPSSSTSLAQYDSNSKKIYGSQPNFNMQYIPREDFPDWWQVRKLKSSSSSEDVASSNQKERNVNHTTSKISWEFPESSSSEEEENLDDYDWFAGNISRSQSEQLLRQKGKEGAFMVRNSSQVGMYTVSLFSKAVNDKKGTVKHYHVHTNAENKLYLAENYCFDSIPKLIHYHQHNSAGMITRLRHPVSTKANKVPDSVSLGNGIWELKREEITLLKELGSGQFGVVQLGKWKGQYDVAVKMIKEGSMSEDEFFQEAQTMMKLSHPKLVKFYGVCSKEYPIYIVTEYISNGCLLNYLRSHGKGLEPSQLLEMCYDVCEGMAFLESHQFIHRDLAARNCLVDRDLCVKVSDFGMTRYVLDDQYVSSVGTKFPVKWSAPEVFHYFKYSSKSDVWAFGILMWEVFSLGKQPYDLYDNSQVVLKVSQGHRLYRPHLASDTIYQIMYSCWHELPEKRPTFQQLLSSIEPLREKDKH
Protocol: as §1

BTK = target: T6, BTK (Homo sapiens, UniProt Q06187)
T6 construct: purchased Eurofins DiscoverX (KINOMEscan)
Protocol: as §1

CAMK2D = target: T7, CAMK2D (Homo sapiens, UniProt Q13557)
T7 construct: purchased Eurofins DiscoverX (KINOMEscan)
Protocol: as §1

CASK = target: T8, CASK (Homo sapiens, UniProt O14936)
T8 construct: purchased Eurofins DiscoverX (KINOMEscan)
Protocol: as §1

CDK4-cyclinD1 = target: T9, CDK4-cyclinD1 (Homo sapiens, UniProt P11802)
T9 construct: purchased Eurofins DiscoverX (KINOMEscan)
Protocol: as §1

CDK9 = target: T10, CDK9 (Homo sapiens, UniProt P50750)
T10 construct: purchased Eurofins DiscoverX (KINOMEscan)
Protocol: as §1

CLK1 = target: T11, CLK1 (Homo sapiens, UniProt P49759)
T11 construct: purchased Eurofins DiscoverX (KINOMEscan)
Protocol: as §1

CTK = target: T12, CTK (Homo sapiens, UniProt P42679)
T12 construct: purchased Eurofins DiscoverX (KINOMEscan)
Protocol: as §1

DAPK3 = target: T13, DAPK3 (Homo sapiens, UniProt O43293)
T13 construct: purchased Eurofins DiscoverX (KINOMEscan)
Protocol: as §1

DCAMKL1 = target: T14, DCAMKL1 (Homo sapiens, UniProt O15075)
T14 construct: purchased Eurofins DiscoverX (KINOMEscan)
T14 sequence (O15075 whole entry): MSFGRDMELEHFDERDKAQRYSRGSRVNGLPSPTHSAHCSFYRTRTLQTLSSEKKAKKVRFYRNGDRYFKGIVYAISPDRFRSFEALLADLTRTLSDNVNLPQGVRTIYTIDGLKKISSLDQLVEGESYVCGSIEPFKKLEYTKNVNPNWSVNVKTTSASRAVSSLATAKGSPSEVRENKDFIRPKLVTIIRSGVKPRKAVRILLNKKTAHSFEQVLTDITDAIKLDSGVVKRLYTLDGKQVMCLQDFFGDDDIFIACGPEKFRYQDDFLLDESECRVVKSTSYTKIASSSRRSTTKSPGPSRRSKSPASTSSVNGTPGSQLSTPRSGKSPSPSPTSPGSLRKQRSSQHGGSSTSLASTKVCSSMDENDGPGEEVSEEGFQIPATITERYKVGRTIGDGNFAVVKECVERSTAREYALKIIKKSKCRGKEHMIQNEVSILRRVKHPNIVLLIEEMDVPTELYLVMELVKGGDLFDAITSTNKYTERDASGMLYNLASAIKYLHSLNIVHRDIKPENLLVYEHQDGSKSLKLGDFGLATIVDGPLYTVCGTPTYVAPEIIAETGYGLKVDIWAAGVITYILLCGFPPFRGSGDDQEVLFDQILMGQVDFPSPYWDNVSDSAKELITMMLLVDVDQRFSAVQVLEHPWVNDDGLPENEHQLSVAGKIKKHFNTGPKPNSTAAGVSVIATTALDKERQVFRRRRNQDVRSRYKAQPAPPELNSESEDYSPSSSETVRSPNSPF
Protocol: as §1

EPHA5 = target: T15, EPHA5 (Homo sapiens, UniProt P54756)
T15 construct: purchased Eurofins DiscoverX (KINOMEscan)
Protocol: as §1

EPHB1 = target: T16, EPHB1 (Homo sapiens, UniProt P54762)
T16 construct: purchased Eurofins DiscoverX (KINOMEscan)
Protocol: as §1

FAK = target: T17, FAK (Homo sapiens, UniProt Q05397)
T17 construct: purchased Eurofins DiscoverX (KINOMEscan)
Protocol: as §1

FGFR4 = target: T18, FGFR4 (Homo sapiens, UniProt P22455)
T18 construct: purchased Eurofins DiscoverX (KINOMEscan)
Protocol: as §1

FLT3(K663Q) = target: T19, FLT3(K663Q) (Homo sapiens, UniProt P36888, K663Q)
T19 construct: purchased Eurofins DiscoverX (KINOMEscan)
Protocol: as §1

HCK = target: T20, HCK (Homo sapiens, UniProt P08631)
T20 construct: purchased Eurofins DiscoverX (KINOMEscan)
Protocol: as §1

[3] = target: T21, JAK3(JH1domain-catalytic) (Homo sapiens, UniProt P52333)
T21 construct: JAK3(JH1domain-catalytic); purchased Eurofins DiscoverX (KINOMEscan)
Protocol: as §1

JNK1 = target: T22, JNK1 (Homo sapiens, UniProt P45983)
T22 construct: purchased Eurofins DiscoverX (KINOMEscan)
Protocol: as §1

JNK3 = target: T23, JNK3 (Homo sapiens, UniProt P53779)
T23 construct: purchased Eurofins DiscoverX (KINOMEscan)
Protocol: as §1

KIT = target: T24, KIT (Homo sapiens, UniProt P10721)
T24 construct: purchased Eurofins DiscoverX (KINOMEscan)
Protocol: as §1

LIMK1 = target: T25, LIMK1 (Homo sapiens, UniProt P53667)
T25 construct: purchased Eurofins DiscoverX (KINOMEscan)
Protocol: as §1

MAP3K3 = target: T26, MAP3K3 (Homo sapiens, UniProt Q99759)
T26 construct: purchased Eurofins DiscoverX (KINOMEscan)
Protocol: as §1

MELK = target: T27, MELK (Homo sapiens, UniProt Q14680)
T27 construct: purchased Eurofins DiscoverX (KINOMEscan)
T27 sequence (Q14680 whole entry): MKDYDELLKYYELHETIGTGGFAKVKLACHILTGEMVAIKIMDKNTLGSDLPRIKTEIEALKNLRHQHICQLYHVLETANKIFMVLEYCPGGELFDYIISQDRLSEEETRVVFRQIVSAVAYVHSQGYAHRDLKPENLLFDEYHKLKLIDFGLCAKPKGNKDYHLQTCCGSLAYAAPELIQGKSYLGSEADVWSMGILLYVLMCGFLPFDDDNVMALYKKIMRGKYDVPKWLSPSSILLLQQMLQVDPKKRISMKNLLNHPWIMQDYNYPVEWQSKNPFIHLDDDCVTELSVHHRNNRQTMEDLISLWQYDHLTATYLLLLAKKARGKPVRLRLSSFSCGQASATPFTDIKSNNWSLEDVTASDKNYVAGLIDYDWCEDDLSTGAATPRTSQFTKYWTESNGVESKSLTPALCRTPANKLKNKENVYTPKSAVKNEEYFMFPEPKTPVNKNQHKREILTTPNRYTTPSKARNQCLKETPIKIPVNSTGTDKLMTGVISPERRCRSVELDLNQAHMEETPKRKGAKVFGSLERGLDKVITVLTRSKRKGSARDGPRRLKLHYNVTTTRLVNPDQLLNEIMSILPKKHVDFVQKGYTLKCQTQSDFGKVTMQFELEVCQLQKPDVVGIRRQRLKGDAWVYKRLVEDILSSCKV
Protocol: as §1

MET = target: T28, MET (Homo sapiens, UniProt P08581)
T28 construct: purchased Eurofins DiscoverX (KINOMEscan)
Protocol: as §1

MST2 = target: T29, MST2 (Homo sapiens, UniProt Q13188)
T29 construct: purchased Eurofins DiscoverX (KINOMEscan)
Protocol: as §1

PDPK1 = target: T30, PDPK1 (Homo sapiens, UniProt O15530)
T30 construct: purchased Eurofins DiscoverX (KINOMEscan)
Protocol: as §1

PIM3 = target: T31, PIM3 (Homo sapiens, UniProt Q86V86)
T31 construct: purchased Eurofins DiscoverX (KINOMEscan)
Protocol: as §1

PKMYT1 = target: T32, PKMYT1 (Homo sapiens, UniProt Q99640)
T32 construct: purchased Eurofins DiscoverX (KINOMEscan)
Protocol: as §1

RAF1 = target: T33, RAF1 (Homo sapiens, UniProt P04049)
T33 construct: purchased Eurofins DiscoverX (KINOMEscan)
Protocol: as §1

RET(V804M) = target: T34, RET(V804M) (Homo sapiens, UniProt P07949, V804M)
T34 construct: purchased Eurofins DiscoverX (KINOMEscan)
Protocol: as §1

ROCK1 = target: T35, ROCK1 (Homo sapiens, UniProt Q13464)
T35 construct: purchased Eurofins DiscoverX (KINOMEscan)
Protocol: as §1

[4] = target: T36, RPS6KA5(Kin.Dom.2-C-terminal) (Homo sapiens, UniProt O75582)
T36 construct: RPS6KA5(Kin.Dom.2-C-terminal); purchased Eurofins DiscoverX (KINOMEscan)
Protocol: as §1

[5] = target: T37, RSK1(Kin.Dom.2-C-terminal) (Homo sapiens, UniProt Q15418)
T37 construct: RSK1(Kin.Dom.2-C-terminal); purchased Eurofins DiscoverX (KINOMEscan)
T37 sequence (Q15418 392-735 limits assumed): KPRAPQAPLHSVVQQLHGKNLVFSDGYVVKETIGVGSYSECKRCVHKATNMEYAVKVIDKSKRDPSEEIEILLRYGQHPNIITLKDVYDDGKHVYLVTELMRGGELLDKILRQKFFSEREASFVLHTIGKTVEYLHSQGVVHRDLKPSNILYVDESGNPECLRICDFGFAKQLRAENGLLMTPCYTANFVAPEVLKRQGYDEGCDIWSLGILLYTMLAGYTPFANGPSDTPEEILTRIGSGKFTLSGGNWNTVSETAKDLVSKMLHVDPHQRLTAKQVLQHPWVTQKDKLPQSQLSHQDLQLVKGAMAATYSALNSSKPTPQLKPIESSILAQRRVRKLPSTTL
Protocol: as §1

S6K1 = target: T38, S6K1 (Homo sapiens, UniProt P23443)
T38 construct: purchased Eurofins DiscoverX (KINOMEscan)
Protocol: as §1

SBK1 = target: T39, SBK1 (Homo sapiens, UniProt Q52WX2)
T39 construct: purchased Eurofins DiscoverX (KINOMEscan)
Protocol: as §1

TBK1 = target: T40, TBK1 (Homo sapiens, UniProt Q9UHD2)
T40 construct: purchased Eurofins DiscoverX (KINOMEscan)
Protocol: as §1

WNK3 = target: T41, WNK3 (Homo sapiens, UniProt Q9BYP7)
T41 construct: purchased Eurofins DiscoverX (KINOMEscan)
T41 sequence (Q9BYP7 whole entry): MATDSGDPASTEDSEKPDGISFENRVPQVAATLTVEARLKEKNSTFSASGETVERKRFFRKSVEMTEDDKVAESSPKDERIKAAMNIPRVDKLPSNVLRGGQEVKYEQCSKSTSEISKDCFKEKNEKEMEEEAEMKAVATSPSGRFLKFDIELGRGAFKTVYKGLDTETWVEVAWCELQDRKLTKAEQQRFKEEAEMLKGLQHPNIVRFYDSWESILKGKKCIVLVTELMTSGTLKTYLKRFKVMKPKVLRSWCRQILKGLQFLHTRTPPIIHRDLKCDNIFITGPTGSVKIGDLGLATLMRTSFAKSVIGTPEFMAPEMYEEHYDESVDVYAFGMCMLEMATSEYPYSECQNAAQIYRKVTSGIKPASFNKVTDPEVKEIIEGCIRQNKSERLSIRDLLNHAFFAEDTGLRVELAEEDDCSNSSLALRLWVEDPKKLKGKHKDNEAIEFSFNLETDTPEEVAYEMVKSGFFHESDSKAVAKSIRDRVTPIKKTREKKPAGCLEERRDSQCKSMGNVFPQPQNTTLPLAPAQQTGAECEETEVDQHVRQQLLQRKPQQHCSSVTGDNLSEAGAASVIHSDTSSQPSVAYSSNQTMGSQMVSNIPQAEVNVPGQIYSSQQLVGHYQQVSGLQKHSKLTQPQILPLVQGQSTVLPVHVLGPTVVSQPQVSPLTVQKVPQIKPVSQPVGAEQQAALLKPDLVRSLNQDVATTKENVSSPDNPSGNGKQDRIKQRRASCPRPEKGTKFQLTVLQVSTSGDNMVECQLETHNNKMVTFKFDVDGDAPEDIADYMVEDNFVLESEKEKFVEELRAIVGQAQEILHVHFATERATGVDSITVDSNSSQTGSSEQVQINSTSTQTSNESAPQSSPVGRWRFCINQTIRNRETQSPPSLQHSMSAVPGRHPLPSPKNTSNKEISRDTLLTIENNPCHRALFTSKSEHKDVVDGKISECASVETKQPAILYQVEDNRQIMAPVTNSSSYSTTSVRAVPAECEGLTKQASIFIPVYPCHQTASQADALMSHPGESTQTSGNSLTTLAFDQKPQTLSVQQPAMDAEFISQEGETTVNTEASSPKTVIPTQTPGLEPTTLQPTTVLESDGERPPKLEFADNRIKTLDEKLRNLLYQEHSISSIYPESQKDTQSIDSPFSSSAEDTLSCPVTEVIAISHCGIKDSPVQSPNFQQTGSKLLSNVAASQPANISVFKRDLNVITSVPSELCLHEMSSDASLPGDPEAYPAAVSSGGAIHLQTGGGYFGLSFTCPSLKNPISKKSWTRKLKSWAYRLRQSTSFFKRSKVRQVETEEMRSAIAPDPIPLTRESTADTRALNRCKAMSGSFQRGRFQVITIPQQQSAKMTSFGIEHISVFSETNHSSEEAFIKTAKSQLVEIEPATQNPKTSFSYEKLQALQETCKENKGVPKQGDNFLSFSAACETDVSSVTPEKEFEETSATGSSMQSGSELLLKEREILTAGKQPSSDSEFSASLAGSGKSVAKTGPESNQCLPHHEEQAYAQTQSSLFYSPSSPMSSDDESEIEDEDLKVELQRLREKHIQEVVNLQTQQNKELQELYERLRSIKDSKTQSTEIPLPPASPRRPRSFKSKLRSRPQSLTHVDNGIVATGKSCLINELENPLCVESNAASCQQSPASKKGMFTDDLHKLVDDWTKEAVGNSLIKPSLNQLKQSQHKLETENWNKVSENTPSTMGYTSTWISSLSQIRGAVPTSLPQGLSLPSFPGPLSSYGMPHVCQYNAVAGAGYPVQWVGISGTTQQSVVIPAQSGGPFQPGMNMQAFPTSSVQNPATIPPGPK
Protocol: as §1

YSK1 = target: T42, YSK1 (Homo sapiens, UniProt O00506)
T42 construct: purchased EuroFins DiscoverX (Fremont, CA, USA)
Protocol: as §1

Brc1ccc2nccc(Nc3ccc4cn[nH]c4c3)c2c1 [Compound 35, 6-Bromo-N-(1H-indazol-6-yl)quinolin-4-amine]
activity at 1 µM [1]: 44% | activity at 1 µM [2]: 95% | activity at 1 µM (AURKB): 90% | activity at 1 µM (AXL): 100% | activity at 1 µM (BMX): 100% | activity at 1 µM (BTK): 100% | activity at 1 µM (CAMK2D): 100% | activity at 1 µM (CASK): 68% | activity at 1 µM (CDK4-cyclinD1): 100% | activity at 1 µM (CDK9): 75% | activity at 1 µM (CLK1): 100% | activity at 1 µM (CTK): 93% | activity at 1 µM (DAPK3): 88% | activity at 1 µM (DCAMKL1): 99% | activity at 1 µM (EPHA5): 100% | activity at 1 µM (EPHB1): 100% | activity at 1 µM (FAK): 99% | activity at 1 µM (FGFR4): 100% | activity at 1 µM (FLT3(K663Q)): 97% | activity at 1 µM (HCK): 100% | activity at 1 µM [3]: 83% | activity at 1 µM (JNK1): 83% | activity at 1 µM (JNK3): 100% | activity at 1 µM (KIT): 100% | activity at 1 µM (LIMK1): 100% | activity at 1 µM (MAP3K3): 100% | activity at 1 µM (MELK): 100% | activity at 1 µM (MET): 100% | activity at 1 µM (MST2): 100% | activity at 1 µM (PDPK1): 100% | activity at 1 µM (PIM3): 100% | activity at 1 µM (PKMYT1): 100% | activity at 1 µM (RAF1): 100% | activity at 1 µM (RET(V804M)): 100% | activity at 1 µM (ROCK1): 71% | activity at 1 µM [4]: 70% | activity at 1 µM [5]: 57% | activity at 1 µM (S6K1): 91% | activity at 1 µM (SBK1): 99% | activity at 1 µM (TBK1): 76% | activity at 1 µM (WNK3): 92% | activity at 1 µM (YSK1): 100%
